Measured values as given in ChEMBL document CHEMBL1157089, “Antitrypanosomal cyclic polyketide peroxides from the Australian marine sponge Plakortis sp” (J Nat Prod, 2010).

Tests used:
[1] = Selectivity ratio of IC50 for HEK293 cells to IC50 for Trypanosoma brucei brucei BS427; assay type: ADME, cell-based; conditions: human, read-out: Ratio IC50
[2] = system: Trypanosoma brucei brucei; experiment: Antitrypanosomal activity against Trypanosoma brucei brucei BS427 after 48 hrs by alamar blue assay; assay type: functional, organism-based; conditions: BS427, 48 h
[3] = system: HEK293; experiment: Cytotoxicity against HEK293 cells after 48 hrs by alamar blue assay; assay type: cell-based; conditions: Homo sapiens, HEK293, 48 h
[4] = system: HEK293; experiment: Cytotoxicity against HEK293 cells after at 83 uM 48 hrs by alamar blue assay; assay type: cell-based; conditions: human, hek293, 48 h

Row | Compound | selectivity ratio [1] | IC50 [2] [nM] | IC50 [3] [nM] | Activity [4] [%]
1 | CC[C@@H](/C=C/C(C)=O)C[C@H](C)C[C@@]1(CC)C[C@@H](CC)[C@@H](CC(=O)O)OO1 | 105 | 49 | 5.1 | 
2 | C=C1CCC[C@@H]2[C@@H](CC[C@@]3(C)CC[C@H]([C@H](C)C(=O)O)OO3)[C@H](C)CC[C@@]12C [SIGMOSCEPTRELLIN B] |  | 510 |  | 
3 | CC[C@H](C[C@H](C)C[C@@]1(CC)C[C@@H](CC)[C@@H](CC(=O)O)OO1)C(=O)O |  | 940 |  | 100
